Numbers after ± are expanded uncertainties.
Experiments:
[1] = 100 kPa, Liquid; for speed of sound: Frequency=2 MHz
[2] = xn = mol fraction of the nth substance listed; settings: 100 kPa, Liquid; for speed of sound: Frequency=2 MHz

| mass density ([1]; 293.15 K) [kg/m3] | viscosity ([1]; 293.15 K) [mPa·s] | speed of sound ([1]; 293.15 K) [m/s] | mass density ([1]; 303.15 K) [kg/m3] | viscosity ([1]; 303.15 K) [mPa·s] | speed of sound ([1]; 303.15 K) [m/s] | mass density ([1]; 313.15 K) [kg/m3] | viscosity ([1]; 313.15 K) [mPa·s] | speed of sound ([1]; 313.15 K) [m/s] | mass density ([1]; 323.15 K) [kg/m3] | viscosity ([1]; 323.15 K) [mPa·s] | speed of sound ([1]; 323.15 K) [m/s] | other results | Compound |
| --- | --- | --- | --- | --- | --- | --- | --- | --- | --- | --- | --- | --- | --- |
| 997.71 ± 0.94 | 2.117 ± 0.053 | 1512.1 ± 3.4 | 989.14 ± 0.94 | 1.771 ± 0.045 | 1474.2 ± 3.4 | 980.56 ± 0.94 | 1.518 ± 0.039 | 1436 ± 3.4 | 971.96 ± 0.94 | 1.299 ± 0.034 | 1398.5 ± 3.4 |  | CCN1CCCC1=O [1-ethyl-2-pyrrolidinone] |
|  |  |  |  |  |  |  |  |  |  |  |  | speed of sound ([2]; 293.15 K, x1 = 1): 1512.1 ± 3.4 m/s; mass density ([2]; 293.15 K, x1 = 1): 997.71 ± 0.94 kg/m3; viscosity ([2]; 293.15 K, x1 = 1): 2.117 ± 0.053 mPa·s; speed of sound ([2]; 303.15 K, x1 = 1): 1474.2 ± 3.4 m/s; mass density ([2]; 303.15 K, x1 = 1): 989.14 ± 0.94 kg/m3; viscosity ([2]; 303.15 K, x1 = 1): 1.771 ± 0.045 mPa·s; speed of sound ([2]; 313.15 K, x1 = 1): 1436 ± 3.4 m/s; mass density ([2]; 313.15 K, x1 = 1): 980.56 ± 0.94 kg/m3; viscosity ([2]; 313.15 K, x1 = 1): 1.518 ± 0.039 mPa·s; speed of sound ([2]; 323.15 K, x1 = 1): 1398.5 ± 3.4 m/s; mass density ([2]; 323.15 K, x1 = 1): 971.96 ± 0.94 kg/m3; viscosity ([2]; 323.15 K, x1 = 1): 1.299 ± 0.034 mPa·s | CCN1CCCC1=O [1-ethyl-2-pyrrolidinone] + CCNCCO |
| 917.79 ± 0.55 | 15.28 ± 0.28 | 1442.4 ± 2.9 | 909.82 ± 0.56 | 9.59 ± 0.19 | 1408.3 ± 2.9 | 901.79 ± 0.57 | 6.406 ± 0.13 | 1374.5 ± 2.9 | 893.68 ± 0.57 | 4.527 ± 0.1 | 1340.9 ± 2.9 |  | CCNCCO [2-(ethylamino)ethanol] |
| 941.79 ± 0.54 | 13.42 ± 0.25 | 1486.5 ± 2.9 | 934.02 ± 0.54 | 8.58 ± 0.17 | 1454.6 ± 2.9 | 926.18 ± 0.55 | 5.869 ± 0.12 | 1422.7 ± 2.9 | 918.25 ± 0.55 | 4.096 ± 0.092 | 1390.9 ± 2.9 |  | CNCCO [2-(methylamino)ethanol] |
|  |  |  |  |  |  |  |  |  |  |  |  | speed of sound ([2]; 293.15 K, x2 = 0): 1486.5 ± 2.9 m/s; mass density ([2]; 293.15 K, x2 = 0): 941.79 ± 0.54 kg/m3; viscosity ([2]; 293.15 K, x2 = 0): 13.42 ± 0.25 mPa·s; speed of sound ([2]; 303.15 K, x2 = 0): 1454.6 ± 2.9 m/s; mass density ([2]; 303.15 K, x2 = 0): 934.02 ± 0.54 kg/m3; viscosity ([2]; 303.15 K, x2 = 0): 8.58 ± 0.17 mPa·s; speed of sound ([2]; 313.15 K, x2 = 0): 1422.7 ± 2.9 m/s; mass density ([2]; 313.15 K, x2 = 0): 926.18 ± 0.55 kg/m3; viscosity ([2]; 313.15 K, x2 = 0): 5.869 ± 0.12 mPa·s; speed of sound ([2]; 323.15 K, x2 = 0): 1390.9 ± 2.9 m/s; mass density ([2]; 323.15 K, x2 = 0): 918.25 ± 0.55 kg/m3; viscosity ([2]; 323.15 K, x2 = 0): 4.096 ± 0.092 mPa·s | CNCCO [2-(methylamino)ethanol] + CCN1CCCC1=O |

From the NIST ThermoML archive (doi:10.1021/je500917k)
